In paper PMC9229949 (Pharmaceutics, 2022):
Like-named read-outs stand apart in the source and are kept apart here.

Key:
[1] = test system: 3D7 P. falciparum gametocytes stages I/III; assay: P. falciparum young gametocytes (stages I/III), luciferase viability; assay type: cell-based; conditions: Plasmodium falciparum, read-out: IC50, gametocytes of P. falciparum, Stages I/III
Procedure: (§1) The activity of compounds was assessed against young gametocytes (stages I/III) and against mature gametocytes (stage V). […] A volume of 100 μL of 3D7elo1-pfs16-CBG99 gametocytes of 3D7 P. falciparum at 0.5–1% parasitemia and 2% hematocrit were dispensed. […] Luciferase activity was used to determine gametocytes viability. A volume of 100 µL of culture medium was removed from each well to increase hematocrit; 70 µL of resuspended culture was transferred to a black 96-well plate; 70 µL of D-luciferin (1 mM in citrate buffer 0.1 M, pH 5.5) was added. Luminescence measurements were performed after 10 min with 500 ms integration time. The IC50 was extrapolated from nonlinear regression analysis of the concentration–response curve.

[2] = Interaction with reduced glutathione (GSH) by monochlorobimane fluorescence assay; conditions: 2 h incubation, 10 to 0.3 drug:GSH molar ratio
Procedure: Ten microliters per well of a solution of 2.0 mM reduced glutathione (Sigma-Aldrich, St. Louis, MO, USA, dissolved in PBS pH 7.2) was distributed in a 96-well microplate containing 170 μL/well of DMSO/PBS (1:1; v/v). Stock solutions of compounds were diluted in DMSO, and 10 μL was added in quadruplicate in the respective wells to a final concentration of 0.015 to 0.5 mM. […] After 1 h incubation at room temperature, fluorescence was recorded (λex = 360 nm, λem = 440 nm). Blank subtraction was performed prior to monochlorobimane addition, and controls included untreated wells (no drug) and no GSH. The results were expressed as a percentage of inhibition of GSH binding to monochlorobimane in comparison to control without compound. At least two independent experiments were performed.

[3] = test system: P. falciparum W2 (CQ-resistant) asexual blood stages; assay: In vitro activity against asexual blood stages of P. falciparum, CQ-resistant strain W2 (HRP2 ELISA); assay type: cell-based; conditions: Plasmodium falciparum, read-out: P. falciparum, IC50 ± S.E.M., CQ-Resistant W2
Procedure: (§2) The plates were incubated for 72 h at 37 °C in controlled atmosphere. After frozen and thawing the plates, hemolyzed cultures were homogenized by vortexing the plates. The antiparasitic activity was determined using the HRP2 ELISA-based assay Malaria Ag Celisa kit (ref KM2159, Cellabs PTY LDT, Brookvale, Australia). […] IC50s are expressed as means of three to five experiments.

[4] = test system: P. falciparum 3D7 (CQ-susceptible) asexual blood stages; assay: In vitro activity against asexual blood stages of P. falciparum, CQ-susceptible strain 3D7 (HRP2 ELISA); assay type: cell-based; conditions: Plasmodium falciparum, read-out: P. falciparum, IC50 ± S.E.M., CQ-Susceptible 3D7
Procedure: as §2

β-hematin formation = β-hematin formation inhibition by infrared spectroscopy; assay type: biochemical; design: key: Yes indicates β-hematin inhibition; No indicates β-hematin formation; conditions: 3:1 ratio of drug:hematin, qualitative by infrared
Procedure: The conversion of hemin to β-hematin was determined by infrared (IR) spectroscopy as described by Egan et al.. […] Then, 0.3 mL of 0.1 M HCl and 1.7 mL of sodium acetate buffer ([…], pH 5) were added at the same temperature. […] The solid was dried and IR spectra were obtained using attenuated total reflection (ATR) using chloroquine as a positive control.

[5] = test system: P. berghei sporozoites in Huh-7 cells; assay: P. berghei hepatic stages: infection of Huh-7 cells by luciferase-expressing sporozoites; assay type: cell-based; conditions: Plasmodium berghei, Huh-7, 48 h, read-out: Sporozoites (Inhibition of Infection, %)
Procedure: Huh-7 cells at 1.0 × 10^4 per well were seeded in 96-well plates the day before drug treatment and infection. The culture medium was replaced by infection medium (culture medium supplemented with gentamicin (50 μg/mL) and amphotericin B (0.8 μg/mL)) containing the appropriate concentration of each compound for approximately 1 h prior to infection with sporozoites of firefly luciferase-expressing P. berghei, freshly obtained through the disruption of salivary glands of infected female Anopheles stephensi mosquitoes. An amount of the DMSO solvent equivalent to that present in the highest compound concentration was used as negative control. Sporozoite addition was followed by centrifugation at 1800× g for 5 min. and parasite infection load was measured 48 h after infection by using a bioluminescence assay (Biotium, Hayward, CA, USA). The effect of the compounds on the viability of Huh-7 cells was assessed by performing the AlamarBlue (Invitrogen, Waltham, MA, USA) assay according to the manufacturer’s protocol.

[6] = test system: β-hematin formation from Fe(III)PPIX (hematin); assay: β-hematin inhibition activity, oxidizing conditions (O-BHIA, hematin); assay type: biochemical; conditions: 18 h incubation; median ± S.E.M. of three experiments; free bases; read-out: β-Hematin Inhibitory Activity (BHIA) O-BHIA (Hematin), IC50
Procedure: (§3) A hemin chloride (10 μL of 4 mM stock in 80% DMSO) aliquot was dispensed in a U bottom 96-well microplate, and then, 10 μL of 0.1 M NaOH (O-BHIA) or 4 mM reduced glutathione in PBS at pH 7.0 (R-BHIA) was added, and plates were sealed and incubated at 37 °C for 2 h. After this, 10 μL of the drug dissolved in DMSO was added and incubated for 2 h, followed by the addition of 180 μL of sodium acetate buffer (1.0 M, pH 5.2) and 10 μL of nonionic detergent IGEPAL-CA-630 solution in methanol (10 mg/mL). Plates were sealed and incubated at 37 °C for 18 h. […] The reaction was stopped by the addition of 50 μL of a sodium dodecyl sulfate solution (5.0% v/v in 0.1 M bicarbonate buffer at pH 9.0). Plates were centrifuged at 3700 rpm for 5 min, and 100 μL of supernatant was placed in a separate plate. […] Two independent experiments were performed, and each drug concentration was tested in quadruplicate concentrations.

[7] = test system: 3D7 P. falciparum gametocytes stage V; assay: P. falciparum mature gametocytes (stage V), luciferase viability; assay type: cell-based; conditions: Plasmodium falciparum, 3D7, 72 h, read-out: IC50, gametocytes of P. falciparum, Stage V
Procedure: as §1

[8] = test system: β-hematin formation from Fe(II)PPIX (heme); assay: β-hematin inhibition activity, reducing conditions (R-BHIA, heme); assay type: biochemical; conditions: 18 h incubation; median ± S.E.M. of three experiments; free bases; read-out: β-Hematin Inhibitory Activity (BHIA) R-BHIA (Heme), IC50
Procedure: as §3

[9] = Cytotoxicity against J774 cells (CellTiter-Glo); assay type: cell-based, murine; conditions: mouse, J774 macrophage cells; reference drug, J774; read-out: CC50 for J774
Procedure: (§4) In vitro cytotoxicity was assayed against two mammalian cell lineages, J774 (murine macrophages) and HepG2 (human hepatocellular carcinoma). […] Cell cultures from 60 to 80% confluence were trypsinized, washed in complete medium, and 4 × 10^4 cells were plated in 100 µL per well with complete medium in 96-well flat-bottom white plates for 24 h at 37 °C prior to the addition of the compounds. Triplicate aliquots of compound and the reference drugs (stock solution in DMSO) covering 7 different concentrations at 2-fold dilutions were added to the wells, and plates were incubated for 72 h more. After incubation for 72 h at 37 °C, plates were maintained at room temperature, the culture medium was removed, and 100 µL volume of CellTiter-Glo reagent was added to each well. The bioluminescence was measured using a microplate reader Filtermax F5 Multi-Mode instrument (Molecular Devices) and Softmax software. […] The selectivity index (S.I.) was estimated using the IC50s from mammalian cells divided by the IC50 obtained against the asexual blood stage P. falciparum.

[10] = Cytotoxicity against uninfected HepG2 cells (CellTiter-Glo); assay type: cell-based; conditions: human, reference drug
Procedure: as §4

| SMILES | interaction with GSH [2] | β-Hematin Inhibitory Activity (BHIA) Determined by IR (β-hematin formation) | IC50 [6] | IC50 [8] | also measured |
| --- | --- | --- | --- | --- | --- |
| C[C@H]1[C@@H](O)O[C@@H]2O[C@@]3(C)CC[C@H]4[C@H](C)CC[C@@H]1[C@@]24OO3 [DHA, dihydroartemisinin] | – | – | – | – | IC50 ([1]; 3D7 strain, 72 h, mean ± S.D. of one experiment): 0.0123 ± 0.0054 µM |
| c1cnc2c(c1)ccc1cccnc12 [phenanthroline] | neither CQ nor phenanthroline interacted with GSH | – | – | – | – |
| COc1cc(NC(C)CCCN)c2ncccc2c1 (centres unmarked) [Primaquine (PQ), primaquine] | – | No | > 1000 µM | > 1000 µM | IC50 ([3]; W2, 72 h incubation, HRP2 ELISA, mean ± S.E.M. of at least three experiments, AQ hydrochloride hydrate, PQ diphosphate, CQ diphosphate): 0.182 ± 0.016 µM; IC50 ([4]; 3D7, 72 h incubation, HRP2 ELISA, mean ± S.E.M. of at least three experiments, AQ hydrochloride hydrate, PQ diphosphate, CQ diphosphate): 1.12 ± 0.053 µM; inhibition at 10 µM [5]: 52%; IC50 [7]: 43.2 ± 10.6 µM; IC50 ([1]; 3D7, 72 h): 13.7 ± 7.6 µM |
| C[C@@H]1CC[C@H]2[C@@H](C)C(=O)O[C@@H]3O[C@@]4(C)CC[C@@H]1[C@]32OO4 [Artemisinin (ARS), artemisinin] | – | – | > 1000 µM | 60 ± 10 µM | – |
| CCN(CC)CCCC(C)Nc1ccnc2cc(Cl)ccc12 (centres unmarked) [Chloroquine (CQ), chloroquine] | neither CQ nor phenanthroline interacted with GSH | Yes | 230 ± 40 µM | 130 ± 30 µM | IC50 ([3]; W2, 72 h): 0.459 ± 0.021 µM; IC50 ([4]; 3D7, 72 h): 0.018 ± 0.002 µM |
| COc1cccc2c1C(=O)c1c(O)c3c(c(O)c1C2=O)C[C@@](O)(C(=O)CO)C[C@@H]3O[C@H]1C[C@H](N)[C@H](O)[C@H](C)O1 [doxorubicin] | – | – | – | – | CC50 at 72 h [9]: 0.44 ± 0.31 µM; CC50 at 72 h [10]: < 0.12 µM |
